Experimental data from patent US20110097332A1, “Composition and Method of Use for HCV Immunization” (priority 2007, published 2011).
“Also recorded” adds a separate entry of the source. Read-outs that look alike come from different tables or passages of the source. Primed or numbered codes have the meaning given here. FITC′ = not defined here

B1: cyclin G, endogenous, in primary mouse hepatocytes (other)
chain: MIEVLTTDSQKLLHQLNTLLEQESRCQPKVCGLKLIESAHDNGLRMTARLRDFEVKDLLSLTQFFGFDTETFSLAVNLLDRFLSKMKVQAKHLGCVGLSCFYLAVKATEEERNVPLATDLIRISQYRFTVSDLMRMEKIVLEKVCWKVKATTAFQFLQLYYSLVHDTLPFERRNDLNFERLEAQLKACHCRIIFSKAKPSVLALSILALEIQALKYVELTEGVECIQKHSKISGRDLTFWQELVSKCLTEYSSNKCSKPNGQKLKWIVSGRTARQLKHSYYRITHLPTIPETIC

Columns and labels:
[1] = test system: HCV genotypes 1, 3, and 4; assay: HCV infection/replication in primary human hepatocytes, HCV RNA by RT-PCR; type: cell-based
Text: (§1) Hepatocytes were obtained (from Tissue Transformation Technologies [Edison, N.J.]) from anonymous organ donors without liver disease that were not suitable for liver transplantation for technical but not medical reasons. These donors are negative For Hepatitis A, B and C, CMV, HIV, HTLV ½, and RPR-STS. Hepatocytes cultures with >5% apoptosis by annexin-V assays and/or increases >3-fold in ALT were discarded.
Hepatocytes were isolated from an encapsulated liver sample by a modified two-step perfusion technique introduced by Seglen (63). Briefly, the dissected lobe was placed into a custom-made perfusion apparatus and two to five hepatic vessels were cannulated with tubing attached to a multi-channel manifold. A liver fragment (150 to 500 g) was perfused initially (recirculation technique) with calcium-free HBSS supplemented with 0.5 mM EGTA for 20 to 30 min and then with 0.05% collagenase [Sigma] dissolved in L-15 medium (with calcium) at 37° C. until the tissue was fully digested. The digested liver was removed, immediately cooled with ice-cold L-15 medium and the cell suspension was strained through serial progressively smaller stainless steel sieves, with a final filtration through 100-micron and 60-micron nylon mesh. The filtered cell suspension was aliquoted into 250-ml tubes and centrifuged three times at 40 g for 3 min at 4° C. […]

[2] = test system: HCV-infected primary human hepatocytes; assay: cell permeability and co-localization with E2 in HCV-infected primary human hepatocytes (immuno-staining, FITC tag); type: cell-based
Text: as §1
Hepatocytes were isolated from an encapsulated liver sample by a modified two-step perfusion technique introduced by Seglen (63). Briefly, the dissected lobe was placed into a custom-made perfusion apparatus and two to five hepatic vessels were cannulated with tubing attached to a multi-channel manifold. A liver fragment (150 to 500 g) was perfused initially (recirculation technique) with calcium-free HBSS supplemented with 0.5 mM EGTA for 20 to 30 min and then with 0.05% collagenase [Sigma] dissolved in L-15 medium (with calcium) at 37° C. until the tissue was fully digested. The digested liver was removed, immediately cooled with ice-cold L-15 medium and the cell suspension was strained through serial progressively smaller stainless steel sieves, with a final filtration through 100-micron and 60-micron nylon mesh. The filtered cell suspension was aliquoted into 250-ml tubes and centrifuged three times at 40 g for 3 min at 4° C. After the last centrifugation, the cells were re-suspended, in HypoThermosol-FRS [BioLife Solutions, Inc] combined in one tube and placed on ice.
Cells were centrifuged at 700 rpm for 5 min at 4° C., the supernatant was removed and the cells were washed with Hanks Wash Solution ([…] KCl 0.4 g/l; 4.4 mM KH2PO 0.06 g/l; […] NaCl 8 g/l; 3.4 mM Na2HPO4 0.048 g/l; 20 μL CaCl2 (2M)) three times. […]
Fluorescent labels were observed using a triple-channel fluorescence microscope or a laser scanning confocal microscope. […] At least 100 cells were analyzed per experimental point (9). The nuclear morphology was analyzed by staining cells with TOPRO-3 (R&D Systems).

[3] = test system: HCV-infected primary human hepatocytes; assay: cell toxicity (LDH in medium) of HCV-infected primary human hepatocytes; type: cell-based
Experimental: Toxicity of HCV E2 mutants to human hepatocyte cultures was determined by measuring lactic dehydrogenase (LDH) (Sigma) and alanine aminotransferase (ALT) (Weiner Laboratories) in the medium. Positive (Jo2 Ab) and negative (untreated cells) control samples were determined in parallel. LDH assays of culture media were measurements of cellular leakage that indicates cell injury. ALT was enriched in hepatocytes and it's presence in serum or cell culture media was a classic indicator of hepatocyte injury. Indeed, it is the FDA's gold standard for hepatocellular toxicity.

[4] = test system: E2; assay: binding of the mutant AP50 peptide to E2; set-up: species or system HCV
[5] = test system: HCV E2; assay: in vitro phosphorylation assay of AP50 by recombinant E2 (cell-free, 32P ATP); type: biochemical; conditions: peptide added to the phosphorylation assay
Experimental: AP50 was immunopurified from untransfected primary hepatocytes and subjected to heat inactivation of any associated kinases. Recombinant wild type or mutated E2 were combined with AP50 in the presence of ^32P ATP (MP Biomedicals cat. #35020) and kinase buffer (50 mM Tris-HCL, pH 7.5, 5 mM MgCl2). The reaction was incubated at room temperature for 1 hour, and run on an SDSPAGE, transferred to a membrane and exposed to film overnight, as described previously (8; 57; 63).

[6] = target: HCV E2 Y228F mutant (hepatitis C virus (HCV), UniProt P26664 384-746, Y228F); assay: co-immunopurification with anti-cyclin G antibodies, primary mouse hepatocytes
[7] = target: HCV E2 Y228E mutant (hepatitis C virus (HCV), UniProt P26664 384-746, Y228E); assay: as above
[8] = primary hepatocyte infection system
[9] = listed as dominant negative peptide of the AP50 phospho-acceptor

Molecule	HCV replication (HCV RNA by RT-PCR) ([1]; peptide added at the time of HCV infection, genotypes 1, 3, and 4)	HCV infection [1, 8]	cell permeability [2]	co-localization / association with HCV E2 [2]	co-localization / association with HCV E2 [2, 9]	toxicity at termination of the experiment ([3]; 120 hours, in the presence of the peptide)	LDH levels (hepatocyte toxicity) ([3]; peptide added to the media at 72 hours post HCV infection)	hepatocyte toxicity induced by the peptide [3, 8]	binding to E2 [4]	auto-phosphorylation of E2 [5]	phosphorylation of AP50 by recombinant E2 (E2 kinase activity) [5, 9]	phosphorylation of AP50 by recombinant E2 (E2 kinase activity) ([5]; listed as dominant negative peptide of the E2 consensus phosphorylation site)	phosphorylation of AP50 by recombinant E2 (E2 kinase activity) ([5]; listed as mutant AP50 peptide)	binding result [6]	binding result [7]
NH2-QGEVQRRRQRRKKRGYGGGG-FITC (H-QGEVQRRRQRRKKRGYGGGG-{FITC′}) [AP50 peptide]	inhibits HCV replication of genotypes 1, 3, and 4	inhibits HCV infection	cell permeable	co-localized with HCV E2	associates with E2	comparable to that of uninfected cells	LDH levels began to decrease	without inducing hepatocyte toxicity	high affinity	unaffected	blocks the in vitro kinase activity of E2	blocked	able to block the phosphorylation of AP50 by recombinant E2 in vitro; also recorded: blocks AP50 phosphorylation by E2		
B1														no binding	no binding
